“And” between values parts separate entries of the source, which are not always exact repeats. Equal entries are not always repeated. Structures can show the parent of a compound that is named as a salt.
Experiments:
[1] = Example 15: sertraline dissolution rate from packed powder in gastric buffer; assay type: physicochemical
Description: The sample tubes were spun at 14K G for 5 minutes in a microcentrifuge to pack the powder. 150 μl gastric buffer was added to the packed powder and the samples were gently agitated,then spun at 14K G in a microcentrifuge for 2 minutes. The samples were then removed from the microcentrifuge and allowed to stand undisturbed until the solution was removed.

[2] = Mechanical properties of compacts (compression, indentation hardness, moduli, tensile strength); assay type: physicochemical; settings: for Compression Stress / Solid Fraction: Compact Preparation; for Dynamic Indentation Hard. / Reduced Elastic Modulus: Dynamic Indentation; for Tensile Strength: Tensile Fracture
Description: These indices are derived from critical measurements made to assess the mechanical response of the compacts (measurements are not made during the process of compaction).
The most critical material properties that influence powder compaction are its ductility, elasticity and tensile strength. Ductility is determined by pendulum impact and is a dynamic indentation test to determine the hardness of the compact. The hardness of the compound is inversely related to its ductility.
Elasticity values of greater than 8 GPa are high, values between 1-8 GPa are moderate and values less than 1 GPa are low.
Tensile strength is measured by transverse compression of the compacts until it results in tensile fracture. It is desirable to have high tensile strength. Tensile strength of greater than 2 MPa is high, values in the range of 0.8-2.0 Mpa are moderate and values less than 0.8 MPa are low.
Hiestand's ITP is comprised of the following characteristics: brittle fracture index (herein termed BFI), best case bonding index (herein termed bBI), worst case bonding index (herein termed wBI) and strain index (herein termed SI).
The BFI is a measure of the propensity of a compact to break or fragment under stress from existing cracks and holes in the compact. BFI is used by the skilled person to indicate the propensity of a tablet to break or fragment during processing (i.e. failure) such as during ejection from a tablet press or during film coating.
Bonding index is an estimate of the capacity of a compact to retain interparticulate bonds during elastic recovery. […] The estimate of plastic deformation is used in calculating the bonding index. The estimation of bonding index is important since decompression is a major step in the manufacture of tablets. The worst case bonding index (wBI) and best case bonding index (bBI) assess the ability of the interparticulate bonds that have been formed during compression to survive the release of strain energy during compression. Under conditions of high speed manufacture of tablets wBI is more applicable than bBI. Bonding index values of greater than or equal 2 are excellent; values between 0.8-1.9 are good; values between 0.3-0.7 are marginal and values less than 0.3 are poor.
The strain index is a measure of the elastic recovery of the compact. It can also be stated to be a measure of be extent of elastic recovery during the unloading phase.

[3] = Example 10: solubility of sertraline hydrochloride in organic acid solutions; settings: water (no acid excipient), thermodynamic from solid
[4] = Example 13: screening of excipients that inhibit precipitation or gelation of sertraline lactate when chloride is present; assay type: physicochemical; settings: sertraline lactate with excipient
[5] = test system: healthy male human subjects; assay: Example 2: side effect visual analogue scales and emesis; assay type: in vivo; settings: 200 mg bolus dose group (n=14)
Description: (§1) In a double-blind, randomized, placebo controlled parallel group study, healthy male human subjects were divided into three groups. […] The tablets were administered with 50 ml water. Group A also received a 50 ml placebo solution every hr for 7 hr. The placebo solution contained lactose and menthol. […] Group B also received two placebo tablets at the fist dosing time. Group C (n=15) received placebo tablets and placebo solutions at the appropriate time points. All subjects were dosed after an overnight fast.
For three side effects evaluated at 30 time points, a total of 4,500 individual visual-analogue-scale evaluations were obtained.

[6] = Example 2: plasma sertraline pharmacokinetics, 200 mg bolus vs 7 hr divided dosing; assay type: in vivo; settings: male, human, oral, mean
Description: as §1

[7] = test system: healthy male human subjects; assay: Example 1: side effect visual analogue scales and emesis; assay type: in vivo; settings: 15 hr divided dose regimen (15 subjects)
Description: (§2) In a double-blind, randomized, placebo-controlled parallel group study, healthy male human subjects were divided into three groups. […] The tablets were administered with 50 ml water. […] Group B also received two placebo tablets at the fist dosing time. Group C, referred to as the “placebo group”, received placebo tablets and placebo solutions at the appropriate corresponding time points. All subjects were dosed after an overnight fast.
Prior to dosing and to each blood sampling time, each subject filled out a questionnaire, which consisted of a series of “Visual Analogue Scales” in which the subject was required to rate, on a scale of 0-10, the severity of certain potential side effects. The subjects were instructed that “0” indicated an absent effect and “10” indicated the worst possible effect.
Analysis of side effect visual-analogue-scale data was carried out as follows. […] The non-gastrointestinal side effects dizziness and tremor were also evaluated.

[8] = test system: healthy male human subjects; settings: Study I
Description: In a subset of a larger double-blind, randomized, placebo-controlled parallel group study, healthy male human subjects were divided into two groups (Study I). […] The tablets were administered with 50 ml water. Group B received two placebo tablets. All subjects were dosed after an overnight fast.
The subjects were instructed that “0” indicated an absent effect and “10” indicated the worst possible effect. The subjects were instructed to interpolate between 0 and 10 for moderate side effects.
A total of 30 subjects completed Study I: 15 each in Groups A and B. For each side effect evaluated at 30 time points, a total of 900 individual visual-analogue-scale evaluations were obtained.

[9] = Example 1: plasma sertraline pharmacokinetics, 200 mg bolus vs 15 hr divided dosing; assay type: in vivo; settings: male, human, oral
Description: as §2
Tmax is the time at which Cmax is achieved.

[10] = test system: healthy male human subjects; assay: Example 6 Study II: emesis, regurgitation and PK/PD plots

## CCCCCCCCCCCC(=O)OCC(O)CO (stereo not shown) [Imwitor ® 312, Glyceryl Monolaurate]
[1]; excipient 5.0, ascorbic 49.5, lactose 12.5, CaCO3 5, lactate 14 wt %
  Sertraline Dissolution Rate: 20.9 mg/ml-min
[1]; excipient 6.8, aspartic 74.2, lactate 19 wt %
  Sertraline Dissolution Rate: 5.3 mg/ml-min

## CCCCCCCC/C=C\CCCCCCCC(=O)OCC(O)CO (stereo not shown) [Myrerol ® (18-99), Glyceryl Monooleate]
[1]; excipient 5.0, ascorbic 49.5, lactose 12.5, lactate 14 wt %
  Sertraline Dissolution Rate: 6.4 mg/ml-min

## CN[C@H]1CC[C@@H](c2ccc(Cl)c(Cl)c2)c2ccccc21.C[C@H](O)C(=O)O [Sertraline L-lactate]
[1]; no candidate excipient, ascorbic 51.0, lactose 20, lactate 14 wt %
  Sertraline Dissolution Rate: 3.5 mg/ml-min
[1]; sertraline lactate 100 wt %, no excipient
  Sertraline Dissolution Rate: 0.9 mg/ml-min
[2]
  tensile strength (in words): very high
  Compression Stress: 52.8 (0.7) Mpa
  Solid Fraction: 0.862
  Dynamic Indentation Hard.: 81.6 (1.6) Mpa
  Reduced Elastic Modulus: 7.4 (0.6) GPa
  Tensile Strength: 0.56 (0.02) Mpa
[2]; Quasistatic Indentation
  Elastic Modulus: 2.0 (0.2) Gpa
  Quasistatic Indentation Hard.: 31.1 (1.4) Mpa
  Shear Modulus: 113.9 (4.6) Mpa

## CCCCCCCCCCCCCCCC(=O)OC[C@H](O)[C@H]1OC(=O)C(O)=C1O [Ascorbyl palmitate]
[1]; excipient 6.8, no acid, lactose 74.2, lactate 19 wt %
  Sertraline Dissolution Rate: 4.3 mg/ml-min

## Span ® 60
[1]; Span 60 5.0, ascorbic 51.0, lactose 15, lactate 14 wt %
  Sertraline Dissolution Rate: 9.5 mg/ml-min

## CN[C@H]1CC[C@@H](c2ccc(Cl)c(Cl)c2)c2ccccc21 [Sertraline hydrochloride]
[3]
  solubility: 25 mg/mL

## O=C1O[C@H]([C@@H](O)CO)C(O)=C1O [Ascorbic acid]
[4]; NaCl 100 mM
  Observation After NaCl Addition: precipitate

## CN[C@H]1CC[C@@H](c2ccc(Cl)c(Cl)c2)c2ccccc21 [Sertraline]
[5]
  emetic events: 4
[6]; 25 mg per hr for 7 hr
  Tmax: 10.4 h
[6]; 25 mg solution per hr for 7 hr (eight doses, 200 mg)
  Cmax: 46 ng/mL
[7]
  emetic episodes: no emetic episodes
[8]; 200 mg bolus dose
  PK/PD plot of average nausea score vs plasma sertraline concentration (FIG. 6): clockwise hysteresis
  diarrhea score vs plasma sertraline concentration curve: clockwise hysteresis
[8]; post-dose
  time of maximum diarrhea score: 3 h
[9]
  Cmax: 32 ng/mL
  Tmax: 16 h
[10]; 200 mg dose group
  subjects who exhibited regurgitation: four
  subjects with emesis: Four
  time of emesis in individual subjects: 2.6 h and 2.8 h and 3.8 h
[10]; the four subjects with regurgitation
  individual PK/PD plots for regurgitation: clockwise hysteresis

## Sertraline acetate
[2]
  elastic modulus (in words): relatively low
  Compression Stress: 36.7 (2.5) Mpa
  Solid Fraction: 0.831
  Dynamic Indentation Hard.: 60.0 (0.4) Mpa
  Reduced Elastic Modulus: 5.1 (0.5) GPa
  Tensile Strength: 0.52 (0.03) Mpa
[2]; Quasistatic Indentation
  Quasistatic Indentation Hard.: 25.1 (1.3) Mpa
  Shear Modulus: 99.9 (19.1) Mpa
[2]; from dynamic indentation hardness
  ductility (in words): high (dynamic indentation hardness values below 100 Mpa are high)

## CCCCCCCCCCCCCCCCCC(=O)OCC(O)CO (stereo not shown) [Imwitor ® 191, Glyceryl Monostearate]
[1]; excipient 5.0, ascorbic 49.5, lactose 12.5, CaCO3 1.0, lactate 14 wt %
  Sertraline Dissolution Rate: 8.0 mg/ml-min

## N[C@@H](Cc1c[nH]cn1)C(=O)O [Histidine]
[4]; NaCl 150 mM
  Final Sertraline Concentration: 110 mg/mL
  Observation After NaCl Addition: slight precipitate
